“And” between values parts separate entries of the source, which are not always exact repeats. Equal values may be shown once. Read-outs that look alike come from different tables or passages of the source. Values belong to the molecule of their own block, whether it stands above or below them. Starred links: 1 amine or outer side, 2 acyl side, 3 side chain; linkers in the order of their positions; H or OH if unused. Non-standard residues stand in square brackets, D forms with d. Residues, ends and D or L forms follow the SMILES beside them. X1 = O=C([C@H](Cc1c([C@H]2O[C@H](CO)[C@@H](O)[C@H](O)[C@@H]2O)[nH]c2ccccc12)N[*:1])[*:2]; pGlu = O=C1CC[C@@H](C(=O)O)N1
Test system: Carausius morosus AKH receptor (Carmo-AKHR)
Assay: Calcium bioluminescence (aequorin) reporter assay, CHO-K1 cells stably expressing Carmo-AKHR
Assay type: cell-based
Conditions: for Fold-reduction in activity (receptor activation relative to Carmo-HrTH-II): ratio of EC50 relative to Carmo-HrTH-II; for Receptor activation (in words): dose-response or clonal line testing, luminescence
Experimental: Functional activation of Carmo-AKHR was carried out by following mammalian cell culture procedures as previously described ([20], [29]) with the following modifications. […] At 24 h post-transfection, cells were selected in DMEM:F12 media containing 10% heat-inactivated fetal bovine serum (Wisent, St. Bruno, QC), 1x antimycotic-antibiotic and 600 μg/mL geneticin (G418) until clonal recombinant cells were evident in transfected cells while no live cells were present in non-transfected CHO-K1 cells (control). Individual clonal recombinant colonies were seeded into separate wells of a 96 well cell-culture dish (Sarstedt Inc., Montreal, QC) and grown to confluence while maintaining geneticin selection. To identify clonal recombinant lines with optimal Carmo-AKHR activity yielding the greatest signal-to-noise ratio, individual clonal recombinant lines were assayed in the bioluminescence reporter assay as described previously ([30]). […] The recombinant cell line showing the optimal luminescent response with greatest signal-to-noise ratio was expanded for preparation of cryo-stocks and subsequent detailed investigation of receptor specificity. […] Bruno, QC), 250 μg/mL Geneticin (MilliporeSigma Canada Ltd., Oakville, ON) and 1X antimycotic-antibiotic (ThermoFisher Scientific, Whitby, ON). […] Transfection was completed with PolyJetTM DNA In Vitro Transfection Reagent (FroggaBio, Toronto, ON) following manufacturer recommendations for transfection of adherent cells. At 48 hours post-transfection, cells were detached from culture flasks using Dulbecco's PBS (Wisent, St. Bruno, QC) containing 5 mM Ethylenediaminetetraacetic acid (EDTA) and were prepared for the functional assay as previously described ([30]). […] Immediately after injection of the cells into each well, luminescence was measured for 20 s using a Synergy 2 Multi-Mode Microplate Reader (BioTek, Winooski, VT, USA). […] Data were analyzed using a one-way or two-way ANOVA and Tukey's multiple comparisons post-hoc test, with differences between treatments considered significant if p<0.05.

[1] = CHO-K1 stably expressing Carmo-AKHR, transiently aequorin, luminescence measured 20 s, from dose-response activation curves, 3 to 4 independent biological replicates, normalized to ATP maximum, read-out: EC50 value
[2] = minimal activity up to the highest concentration tested, read-out: EC50 value (M), not determinable: minimal activity

Molecule: C[C@H](NC(=O)[C@@H]1CCC(=O)N1)C(=O)N[C@H](C(=O)N[C@@H](Cc1ccccc1)C(=O)N[C@H](C(=O)N1CCC[C@H]1C(=O)N[C@@H](CC(N)=O)C(=O)N[C@@H](Cc1c[nH]c2ccccc12)C(=O)NCC(=O)N[C@H](C(N)=O)[C@@H](C)O)[C@@H](C)O)[C@@H](C)O [Ala^2-analog] ([pGlu]ATFTPNWGT-NH2)
EC50 [1]: 6.93e-07 M
Fold-reduction in activity (receptor activation relative to Carmo-HrTH-II): 9.42 fold

Molecule: CC(C)C[C@H](NC(=O)[C@@H]1CCC(=O)N1)C(=O)N[C@H](C(=O)N[C@@H](Cc1ccccc1)C(=O)N[C@@H](C)C(=O)N1CCC[C@H]1C(=O)N[C@@H](CC(N)=O)C(=O)N[C@@H](Cc1c[nH]c2ccccc12)C(=O)NCC(=O)N[C@H](C(N)=O)[C@@H](C)O)[C@@H](C)O [Ala^5-analog] ([pGlu]LTFAPNWGT-NH2)
EC50 [1]: 8.58e-05 M
Fold-reduction in activity (receptor activation relative to Carmo-HrTH-II): 1166.83 fold

Molecule: CC(C)C[C@H](NC(=O)[C@@H]1CCC(=O)N1)C(=O)N[C@H](C(=O)N[C@@H](Cc1ccccc1)C(=O)N[C@H](C(=O)N[C@@H](C)C(=O)N[C@@H](CC(N)=O)C(=O)N[C@@H](Cc1c[nH]c2ccccc12)C(=O)NCC(=O)N[C@H](C(N)=O)[C@@H](C)O)[C@@H](C)O)[C@@H](C)O [Ala^6-analog] ([pGlu]LTFTANWGT-NH2)
EC50 [1]: 4.04e-07 M
Fold-reduction in activity (receptor activation relative to Carmo-HrTH-II): 5.49 fold

Molecule: CC(C)C[C@H](NC(=O)[C@@H]1CCC(=O)N1)C(=O)N[C@H](C(=O)N[C@@H](Cc1ccccc1)C(=O)N[C@H](C(=O)N1CCC[C@H]1C(=O)N[C@@H](C)C(=O)N[C@@H](Cc1c[nH]c2ccccc12)C(=O)NCC(=O)N[C@H](C(N)=O)[C@@H](C)O)[C@@H](C)O)[C@@H](C)O [Ala^7-analog] ([pGlu]LTFTPAWGT-NH2)
EC50 [1]: 3.1e-07 M
Fold-reduction in activity (receptor activation relative to Carmo-HrTH-II): 4.21 fold

EC50 [2]: > 0.0001 M
Molecule: CC(C)C[C@H](NC(=O)[C@@H]1CCC(=O)N1)C(=O)N[C@H](C(=O)N[C@@H](Cc1ccccc1)C(=O)N[C@H](C(=O)N1CCC[C@H]1C(=O)N[C@@H](CC(N)=O)C(=O)N[C@@H](C)C(=O)NCC(=O)N[C@H](C(N)=O)[C@@H](C)O)[C@@H](C)O)[C@@H](C)O [Ala^8-analog] ([pGlu]LTFTPNAGT-NH2)
Fold-reduction in activity (receptor activation relative to Carmo-HrTH-II): >1360 fold

Molecule: CC(C)C[C@H](NC(=O)[C@@H]1CCC(=O)N1)C(=O)N[C@H](C(=O)N[C@@H](Cc1ccccc1)C(=O)N[C@H](C(=O)N1CCC[C@H]1C(=O)N[C@@H](CC(N)=O)C(=O)N[C@@H](Cc1c[nH]c2ccccc12)C(=O)N[C@@H](C)C(=O)N[C@H](C(N)=O)[C@@H](C)O)[C@@H](C)O)[C@@H](C)O [Ala^9-analog] ([pGlu]LTFTPNWAT-NH2)
EC50 [1]: 1.48e-06 M
Fold-reduction in activity (receptor activation relative to Carmo-HrTH-II): 20.18 fold

Molecule: CC(C)C[C@H](NC(=O)[C@@H]1CCC(=O)N1)C(=O)N[C@H](C(=O)N[C@@H](Cc1ccccc1)C(=O)N[C@H](C(=O)N1CCC[C@H]1C(=O)N[C@@H](CC(N)=O)C(=O)N[C@@H](Cc1c[nH]c2ccccc12)C(=O)NCC(=O)N[C@@H](C)C(N)=O)[C@@H](C)O)[C@@H](C)O [Ala^10-analog] ([pGlu]LTFTPNWGA-NH2)
EC50 [1]: 1.1e-08 M
Fold-reduction in activity (receptor activation relative to Carmo-HrTH-II): 0.15 fold

EC50 [2]: > 0.0001 M
Molecule: CC(C)C[C@H](NC(=O)[C@@H]1CCC(=O)N1)C(=O)N[C@H](C(=O)N[C@@H](Cc1ccccc1)C(=O)N[C@H](C(=O)N1CCC[C@H]1C(=O)N[C@@H](CC(N)=O)C(=O)N[C@@H](Cc1c[nH]c2ccccc12)C(=O)NCC(=O)N[C@H](C(=O)O)[C@@H](C)O)[C@@H](C)O)[C@@H](C)O [Carmo-HrTH-II free acid] ([pGlu]LTFTPNWGT-OH)
Fold-reduction in activity (receptor activation relative to Carmo-HrTH-II): >1360 fold

EC50 [2]: > 0.0001 M
Molecule: CC(C)C[C@H](N)C(=O)N[C@H](C(=O)N[C@@H](Cc1ccccc1)C(=O)N[C@H](C(=O)N1CCC[C@H]1C(=O)N[C@@H](CC(N)=O)C(=O)N[C@@H](Cc1c[nH]c2ccccc12)C(=O)NCC(=O)N[C@H](C(N)=O)[C@@H](C)O)[C@@H](C)O)[C@@H](C)O [Carmo-HrTH-II minus pGlu] (H-LTFTPNWGT-NH2)
Fold-reduction in activity (receptor activation relative to Carmo-HrTH-II): >1360 fold

Molecule: CC(C)C[C@H](NC(=O)[C@@H]1CCC(=O)N1)C(=O)N[C@H](C(=O)N[C@@H](Cc1ccccc1)C(=O)N[C@H](C(=O)N1CCC[C@H]1C(=O)N[C@@H](CC(N)=O)C(=O)N[C@@H](Cc1c[nH]c2ccccc12)C(=O)NCC(=O)N[C@H](C(N)=O)[C@@H](C)O)[C@@H](C)O)[C@@H](C)O [Carmo-HrTH-II] ([pGlu]LTFTPNWGT-NH2)
EC50 [1]: 7.36e-08 M

Molecule: CC(C)C[C@H](NC(=O)[C@@H]1CCC(=O)N1)C(=O)N[C@H](C(=O)N[C@@H](Cc1ccccc1)C(=O)N[C@H](C(=O)N1CCC[C@H]1C(=O)N[C@@H](CC(N)=O)C(=O)N[C@@H](Cc1c([C@H]2O[C@H](CO)[C@@H](O)[C@H](O)[C@@H]2O)[nH]c2ccccc12)C(=O)NCC(=O)N[C@H](C(N)=O)[C@@H](C)O)[C@@H](C)O)[C@@H](C)O [Carmo-HrTH-I] ([pGlu]LTFTPN[X1]GT-NH2)
EC50 [1]: 8.97e-08 M
Fold-reduction in activity (receptor activation relative to Carmo-HrTH-II): 1.22 fold

Molecule: CC(C)C[C@H](NC(=O)[C@@H]1CCC(=O)N1)C(=O)N[C@@H](CC(N)=O)C(=O)N[C@@H](Cc1ccccc1)C(=O)N[C@@H](CO)C(=O)N1CCC[C@H]1C(=O)NCC(=O)N[C@@H](Cc1c[nH]c2ccccc12)C(N)=O [Panbo-RPCH] ([pGlu]LNFSPGW-NH2)
EC50 [1]: 3.35e-05 M
Fold-reduction in activity (receptor activation relative to Carmo-HrTH-II): 455 fold and 455.74 fold

EC50 [2]: > 0.0001 M
Molecule: CC(C)[C@H](NC(=O)[C@@H]1CCC(=O)N1)C(=O)N[C@@H](CC(N)=O)C(=O)N[C@@H](Cc1ccccc1)C(=O)N[C@@H](CO)C(=O)N1CCC[C@H]1C(=O)N[C@@H](CC(N)=O)C(=O)N[C@@H](Cc1c[nH]c2ccccc12)C(N)=O [Peram-CAH-I] ([pGlu]VNFSPNW-NH2)
Receptor activation (in words): complete loss of efficacy
Fold-reduction in activity (receptor activation relative to Carmo-HrTH-II): >1360 fold

Molecule: CC[C@H](C)[C@H](NC(=O)[C@@H]1CCC(=O)N1)C(=O)N[C@H](C(=O)N[C@@H](Cc1ccccc1)C(=O)N[C@H](C(=O)N1CCC[C@H]1C(=O)N[C@@H](CC(N)=O)C(=O)N[C@@H](Cc1c[nH]c2ccccc12)C(N)=O)[C@@H](C)O)[C@@H](C)O [Polae-HrTH] ([pGlu]ITFTPNW-NH2)
EC50 [1]: 8.76e-06 M
Fold-reduction in activity (receptor activation relative to Carmo-HrTH-II): 120 fold and 119.12 fold

Molecule: CC(C)C[C@H](NC(=O)[C@@H]1CCC(=O)N1)C(=O)N[C@H](C(=O)N[C@@H](Cc1ccccc1)C(=O)N[C@H](C(=O)N1CCC[C@H]1C(=O)N[C@@H](CC(N)=O)C(=O)N[C@@H](Cc1c[nH]c2ccccc12)C(=O)NCC(N)=O)[C@@H](C)O)[C@@H](C)O [Triin-AKH] ([pGlu]LTFTPNWG-NH2)
EC50 [1]: 5.48e-07 M
Fold-reduction in activity (receptor activation relative to Carmo-HrTH-II): 7.45 fold

EC50 [2]: > 0.0001 M
Molecule: CC(=O)N[C@@H](C)C(=O)N[C@@H](CC(C)C)C(=O)N[C@H](C(=O)N[C@@H](Cc1ccccc1)C(=O)N[C@H](C(=O)N1CCC[C@H]1C(=O)N[C@@H](CC(N)=O)C(=O)N[C@@H](Cc1c[nH]c2ccccc12)C(=O)NCC(=O)N[C@H](C(N)=O)[C@@H](C)O)[C@@H](C)O)[C@@H](C)O [[N-Ac. Ala]^1-analog] (Ac-ALTFTPNWGT-NH2)
Fold-reduction in activity (receptor activation relative to Carmo-HrTH-II): >1360 fold

Molecule: [pGlu]LAFTPNWGT-NH2 [Ala^3-analog, alanine-substituted analog of Carmo-HrTH-II, position 3]
Fold-reduction in activity (receptor activation relative to Carmo-HrTH-II): 1045.82 fold

Molecule: [pGlu]LTATPNWGT-NH2 [Ala^4-analog, alanine-substituted analog of Carmo-HrTH-II, position 4]
Fold-reduction in activity (receptor activation relative to Carmo-HrTH-II): >1360 fold

Molecule: [pGlu]VTFSRDWNA-NH2 [Aedae-ACP, AKH/corazonin-related peptide of Aedes aegypti]
Receptor activation (in words): failed to activate the receptor at all tested doses

Molecule: pETFQYSRGWTN amide [Aedae-Crz, corazonin of the mosquito Aedes aegypti]
Receptor activation (in words): failed to activate the receptor at all tested doses

Source: publication PMC12310481, “Sequence, characterization and pharmacological analyses of the adipokinetic hormone receptor in the stick insect, Carausius morosus” (Frontiers in Endocrinology, 2025)
